In patent publication US20220170940A1, “BIOMARKER WITH THERAPEUTIC IMPLICATIONS FOR PERITONEAL CARCINOMATOSIS” (SINGAPORE HEALTH SERVICES PTE LTD, priority 2019, published 2022):

Columns and labels:
Colo-205 cells [1] = assay: In vitro drug treatment, CellTitreGlo proliferation of cell-free ascites-treated cells; type: cell-based, Human; conditions: 5% cell-free ascites of PPA, CAP, APA groups or FBS control, 72 hours
Procedure: A total of 5,000 cells/wells were seeded in 96-well plates and were grown for 24 hours in serum-free RPMI medium supplemented with 5% cell-free ascites or complete media, and then treated with various concentrations of TM5441 (PAI-1 inhibitor), Tiplaxtinin (PAI-1 inhibitor), Napabucasin (STAT3 inhibitor), BEZ235 (dual PI3K/mTOR inhibitor) and Mitomycin C (chemotherapeutic agent used in hyperthermic intraperitoneal chemotherapy (HIPEC)) for 72 hours. Cell proliferation was assessed using CellTitreGlo assay (Promega, Madison, US). These experiments were performed in triplicates and were repeated at least 3 times.

phospho-STAT3 (Tyr705) = assay: p-STAT3 (Y705) ELISA of cell-free ascites-treated cancer cells with TM5441; type: cell-based, Human; conditions: cells exposed to PPA cell-free ascites (PC085, PC383) versus CAP (PC249) and APA (PC010)
Procedure: Concentrations of PAI-1 (DSE100), IL6 (D6050), IL10 (D1000B), CCL2 (DCP00), MMP9 (DMP900), ANGPT1 (DANG10), TGFB1 (DB100B), and CXCL10 (DIP100) in cell-free ascites were quantified using human Quantikine ELISA kits from R&D Systems. Concentrations of POSTN (DY3548B) and CD44 (DY7045-05) in cell-free ascites were quantified using human DuoSet ELISA kits from R&D Systems. VSIG4 (ELH-VSIG4-1) concentration in cell-free ascites was quantified using ELISA from RayBiotech. All samples were performed with 2 technical replicates according to the manufacturers' instructions. Total STAT3 and phospho-STAT3 (Tyr705) were detected with ELISA (7305C and 7300C, Cell Signalling Technology, Massachusetts, US). Proteins were isolated from cell lysates of Colo-205 and SNU-C1 that were treated with 5% cell-free ascites for 24 hours. In all experiments, 25 μg of protein was used for total STAT3 and p-STAT3(Y705) ELISA following the manufacturer's instructions.

Colo-205 cells [2] = assay: In vivo PC cell line mouse model, drug concentration and delivery method (i.p. vs oral); set-up: species or system BALB/c nude mice; conditions: PPA cell-free ascites (PC085); i.p. every 3 days up to 21 days; n=4 mice/group
Procedure: To determine the optimal drug concentration and drug delivery method, a total of 16 female BALB/c nude mice with the age of 6-8 weeks old were selected for the experiment. Each mouse was injected with 5×10^6 of Colo-205 cells intraperitoneally. The mice were divided into 4 groups and given the following treatments: (i) 5% cell-free ascites with 1% DMSO, (ii) 5% cell-free ascites with 1 mM TM5441, (iii and iv) 5% cell-free ascites with 2 mM TM5441. Treatment was performed by injecting 400 μL of 5% cell-free ascites with DMSO vehicle/drug intraperitoneally (i-iii) and orally (iv) every 3 days, up to 21 days. After 3 weeks, the mice were sacrificed and tumour burden was quantified based on a modified peritoneal carcinomatosis index (PCI) score and presented as total peritoneal carcinomatosis index (PCI) score. Total peritoneal carcinomatosis index (PCI) score was calculated based on the sum of score for each region and ranges from 0 to 39.

[3] = tested on: IL6-JAK-STAT3 signalling pathway; assay: Gene expression profiling (RNA microarray, GSEA) upon PAI-1 inhibition; type: cell-based, Human; conditions: Colo-205 cells, PPA cell-free ascites (PC085), 27.25 μM TM5441 vs DMSO, 24 hours
Procedure: To assess signalling pathways affected by PAI-1 inhibition, Colo-205 cells were treated with cell-free ascites representative of PAI-1 paracrine addicted (PPA) group, co-activators predominant (CAP) group or foetal bovine serum (FBS; control) in the presence of DMSO vehicle or 27.25 μM TM5441 for 24 hours. Total RNA was isolated using Qiagen Mini Kit (Qiagen, CA, USA), following the manufacturer's instructions. Gene expression profiling was performed using Affymetrix GeneChip Genome U133 Plus 2.0 microarray platform (Affymetrix, Santa Clara, Calif.) in accordance to manufacturer's protocols. Microarray data was uploaded into the free programming software R (R Foundation for Statistical Computing, Vienna, Austria) for processing and normalization. Gene Set Enrichment Analysis (GSEA) was used to assess enrichment of genes showing up- and down-regulation using GSEA graphical user interface (GUI) software (http://www.broadinstitute.org/gsea/).

[4] = tested on: patient-derived ascites-dependent xenograft (PDADX) tumours; assay: Patient-derived ascites-dependent xenografts (PDADXs) drug treatment; type: in vivo, BALB/c nude mice; conditions: 2 mM TM5441 i.p. every 3 days for 21 days
Procedure: Ascites collected from patients with peritoneal carcinomatosis were centrifuged at 2000 g for 10 minutes to concentrate the cellular components and to separate the fluid component. 1 mL of cell pellet was resuspended with 1 mL of ascitic fluid and 400 μL of the mixture was implanted intraperitoneally into 6-week-old BALB/c nude mice (n=5 mice) to generate patient-derived ascites-dependent xenograft (PDADX) passage 0 (P0). For subsequent passages, patient-derived ascites-dependent xenograft (PDADX) tumours were diced into small pieces using scalpel blades and passed through an 18-G syringe needle. Diced tumours were resuspended with matched patient's ascites at 1:1 ratio and implanted intraperitoneally into 6-week-old BALB/c nude mice (n=10 mice).
Matched patient's cell-free ascites and its cellular components were used to generate patient-derived ascites-dependent xenografts (PDADXs) to better recapitulate peritoneal carcinomatosis patients. PAI-1 paracrine addicted (PPA) patient-derived ascites-dependent xenograft (PDADX) tumours (100 mg) were implanted into 16 female BALB/c nude mice intraperitoneally and co-activators predominant (CAP) patient-derived ascites-dependent xenograft (PDADX) tumours (100 mg) were implanted into 16 female BALB/c nude mice intraperitoneally. […] Tumour burden was quantified by weighing all visible tumours after mice were sacrificed.
Briefly, co-activators predominant (CAP) patient-derived ascites-dependent xenograft (PDADX) tumours (100 mg) were implanted into 16 female BALB/c nude mice intraperitoneally. […] Tumour burden was quantified by weighing all visible tumours after mice were sacrificed.

Colo-205 cells [5] = assay: In vivo PC cell line mouse model drug treatment (ascites groups); set-up: species or system BALB/c nude mice; conditions: PPA cell-free ascites (PC085)-treated mice; 1.75 mM TM5441 i.p. every 3 days for 21 days; n=5 mice/group
Procedure: To determine the efficacy of PAI-1 inhibition in different susceptibility ascites groups in vivo, 5×10^6 of Colo-205 cells were co-injected with cell-free ascites representative of PAI-1 paracrine addicted (PPA) group, co-activators predominant (CAP) group or foetal bovine serum (FBS) into abdominal cavity of 6- to 8-week-old BALB/c nude mice (female, n=5 mice/group) and treated with 1.75 mM TM5441 administered intraperitoneally. Ascites and drug treatment were performed by injecting 400 μL of 5% cell-free ascites or 10% foetal bovine serum (FBS) with TM5441 intraperitoneally every 3 days for a duration of 21 days. After 3 weeks, the mice were sacrificed and tumour burden was quantified based on a modified peritoneal carcinomatosis index (PCI) score and presented as total peritoneal carcinomatosis index (PCI) score. Total peritoneal carcinomatosis index (PCI) score was calculated based on the sum of score for each region and ranges from 0 to 39.

Cn1c(=O)n(-c2ccc(C(C)(C)C#N)cc2)c2c3cc(-c4cnc5ccccc5c4)ccc3ncc21 [BEZ235]
Sensitivity of cell-free ascites-treated Colo-205 cells to inhibitor (dose-response, cell proliferation) (Colo-205 cells [1]): ineffective

CO[C@@]12[C@H](COC(N)=O)C3=C(C(=O)C(C)=C(N)C3=O)N1C[C@@H]1N[C@@H]12 [Mitomycin C]
Sensitivity of cell-free ascites-treated Colo-205 cells to inhibitor (dose-response, cell proliferation) (Colo-205 cells [1]): ineffective

CC(=O)c1cc2c(o1)C(=O)c1ccccc1C2=O [Napabucasin]
Sensitivity of cell-free ascites-treated Colo-205 cells to inhibitor (dose-response, cell proliferation) (Colo-205 cells [1]): ineffective

O=C(COCC(=O)Nc1ccc(Cl)cc1C(=O)[O-])Nc1cccc(-c2ccoc2)c1.[Na+] [TM5441, 5-Chloro-2-[[2-[2-[[3-(3-furanyl)phenyl]amino]-2-oxoethoxy]acetyl]amino]benzoic acid sodium salt]
Concentration needed to suppress STAT3 activation (p-STAT3 ELISA) (phospho-STAT3 (Tyr705)): required a lower concentration of TM5441 to supress STAT3 activation
Formation of peritoneal tumours (modified PCI score), intraperitoneal instillation (Colo-205 cells [2]): effectively inhibited
Sensitivity of cell-free ascites-treated Colo-205 cells to inhibitor (dose-response, cell proliferation) (Colo-205 cells [1]): PAI-1 paracrine addicted (PPA) (n=18) being the most sensitive to PAI-1 inhibition, followed by co-activators predominant (CAP) (n=59) and alternative pathways activation (APA) (n=17)
IL6-JAK-STAT3 signalling pathway regulation (GSEA) [3]: significantly down-regulated
Tumour burden (weight of all visible tumours), PC249 PDADX with PPA cell-free ascites (PC383) ([4]; CAP PDADX (PC249) exposed to PC383 PPA ascites): became susceptible to PAI-1 inhibition
Tumour burden (weight of all visible tumours), PC249 PDADX with matched cell-free ascites ([4]; CAP PDADX (PC249), matched CAP ascites): no reduction in tumour burden compared to vehicle control
Tumour burden (weight of all visible tumours), PC383 PDADX with matched cell-free ascites ([4]; PPA PDADX (PC383), matched PPA ascites, n=4 mice/group): significantly superior inhibition of tumour growth compared to vehicle control
Tumour burden (modified PCI score) (Colo-205 cells [5]): significant reduction in tumour burden

O=C(O)C(=O)c1cn(Cc2ccccc2)c2ccc(-c3ccc(OC(F)(F)F)cc3)cc12 [Tiplaxtinin, 2-(1-Benzyl-5-(4-(trifluoromethoxy)phenyl)-1H-indol-3-yl)oxoacetic acid]
Sensitivity of cell-free ascites-treated Colo-205 cells to inhibitor (dose-response, cell proliferation) (Colo-205 cells [1]): showed the same trend of differential response
